Data as given in patent publication US10485844B2, “Methods for treating severe atopic dermatitis by administering an IL-4R inhibitor” (Regeneron Pharmaceuticals, Inc., priority 2016, dated 2019).

Tests used:
[1] = test system: patients with moderate-to-severe AD; test: Pooled subgroup analysis of two 16-week phase 3 dupilumab monotherapy trials by CsA eligibility / CsA history; format: in vivo, human; settings: for Patients achieving EASI 75, n (%) / Patients achieving IGA 0-1, n (%) / bacterial conjunctivitis rate / conjunctivitis rate: 16 weeks; for Patients achieving a ≥4-point improvement in peak pruritus NRS, n/N1 (%): baseline NRS ≥4
Experimental: Pts (N=1379) with moderate-to-severe AD whose disease was not adequately controlled by topical medications or for whom topical treatment is medically inadvisable were randomized to receive subcutaneous injections of placebo (PBO) or dupilumab 300 mg every 2 weeks (q2w) or weekly (qw) for 16 weeks.
Subset A pts had, on average, more severe disease than subset B pts, as assessed by Eczema Area and Severity Index (EASI; mean baseline±SD EASI score 37.2±14.69 vs 32.0±13.29; nominal p<0.0001).

[2] = Functional dupilumab concentrations in serum, 52-week trial with TCS; format: in vivo, human; settings: Week 16
Experimental: The clinical trial was a 52-week randomized, multicenter, double-blind, placebo-controlled trial of subcutaneous dupilumab with concomitant topical corticosteroids (TCS) in 740 adult patients (NCT02260986) randomized 3:1:3 to placebo, dupilumab 300 mg every 2 weeks (q2w) and dupilumab 300 mg every week (qw); patients randomized to dupilumab received a loading dose of 600 mg. An open-label extension study of dupilumab 300 mg qw (NCT01949311) is ongoing in patients who participated in prior studies and results from 1076 patients treated for up to 68 weeks are also reported. This Example describes functional dupilumab concentrations measured in serum from blood samples at various time-points and analyzed using descriptive statistics.

[3] = test system: adults with moderate-to-severe atopic dermatitis; test: Phase 3 open-label trial: dupilumab-naïve vs retreated patients (treatment interruption); settings: for adverse events/100 patient years: to Wk52; for decrease in peak pruritus NRS score from baseline of parent study / patients who achieved EASI-75 (from baseline of parent study) / patients with Investigator's Global Assessment score of 0 or 1: Wk52
Experimental: This Example presents an interim analysis of an ongoing multicenter, open-label trial (NCT01949311) of dupilumab treatment for up to 3 yrs. Adults with moderate-to-severe atopic dermatitis (AD) were enrolled after participation in prior dupilumab trials. Safety and efficacy at Week [Wk] 52 for dupilumab naïve (previously unexposed) and retreated (>13 Wk gap between parent and open-label study) patients were evaluated.

[4] = CSA-eligible subset, Dupilumab 300 mg Q2W
[5] = CSA-eligible subset, Dupilumab 300 mg QW
[6] = CSA-ineligible subset, Dupilumab 300 mg Q2W
[7] = CSA-ineligible subset, Dupilumab 300 mg QW

For “dupilumab: fully human anti-IL-4R antibody; heavy chain SEQ ID NO: 9, light chain SEQ ID NO: 10”, the “Patients achieving EASI 75, n (%)” value ([1]; CSA-eligible subset, Dupilumab 300 mg Q2W (N = 353)) was “(49.9) %”, the “Patients achieving IGA 0-1, n (%)” value [1, 4] was “(38.8) %” and the “Patients achieving a ≥4-point improvement in peak pruritus NRS, n/N1 (%)” value (“Patients achieving a ≥4-point improvement … (%)” for short) [1, 4] was “(39.7) %”. The “Patients achieving EASI 75, n (%)” value ([1]; CSA-eligible subset, Dupilumab 300 mg QW (N = 366)) was “(54.1) %”, the “Patients achieving IGA 0-1, n (%)” value [1, 5] was “(39.1) %” and the “Patients achieving a ≥4-point improvement … (%)” value [1, 5] was “(40.5) %”. The “Patients achieving EASI 75, n (%)” value ([1]; CSA-ineligible subset, Dupilumab 300 mg Q2W (N = 104)) was “(40.4) %”, the “Patients achieving IGA 0-1, n (%)” value [1, 6] was “(30.8) %” and the “Patients achieving a ≥4-point improvement … (%)” value [1, 6] was “(33.7) %”. For the same substance, the “Patients achieving EASI 75, n (%)” value ([1]; CSA-ineligible subset, Dupilumab 300 mg QW (N = 96)) was “(35.4) %”, the “Patients achieving IGA 0-1, n (%)” value [1, 7] was “(28.1) %” and the “Patients achieving a ≥4-point improvement … (%)” value [1, 7] was “(36.3) %”. It also gave a bacterial conjunctivitis rate ([1]; CsA-eligible, dupilumab q2w) of 0.6%, a conjunctivitis rate ([1]; CsA-eligible, dupilumab q2w) of 5% and a bacterial conjunctivitis rate ([1]; CsA-eligible, dupilumab qw) of 1.1%. It also gave a conjunctivitis rate ([1]; CsA-eligible, dupilumab qw) of 3.3%, a bacterial conjunctivitis rate ([1]; CsA-ineligible, dupilumab q2w) of 3.8% and a conjunctivitis rate ([1]; CsA-ineligible, dupilumab q2w) of 1.9%. The bacterial conjunctivitis rate ([1]; CsA-ineligible, dupilumab qw) was 4.2%, the conjunctivitis rate ([1]; CsA-ineligible, dupilumab qw) was 4.2% and the “Patients achieving EASI 75, n (%)” value ([1]; Subset A (inadequate response or intolerance to CsA), Dupilumab 300 mg Q2W (N = 94)) was “(38.3) %”. The “Patients achieving IGA 0-1, n (%)” value ([1]; Subset A, Dupilumab 300 mg Q2W) was “(29.8) %”, the “Patients achieving a ≥4-point improvement … (%)” value ([1]; Subset A, Dupilumab 300 mg Q2W) was “(33.7) %” and the “Patients achieving EASI 75, n (%)” value ([1]; Subset A, Dupilumab 300 mg QW (N = 83)) was “(34.9) %”. The “Patients achieving IGA 0-1, n (%)” value ([1]; Subset A, Dupilumab 300 mg QW) was “(27.7) %”, the “Patients achieving a ≥4-point improvement … (%)” value ([1]; Subset A, Dupilumab 300 mg QW) was “(34.1) %” and the “Patients achieving EASI 75, n (%)” value ([1]; Subset B (remaining study population), Dupilumab 300 mg Q2W (N = 363)) was “(50.1) %”. The “Patients achieving IGA 0-1, n (%)” value ([1]; Subset B, Dupilumab 300 mg Q2W) was “(38.8) %”, the “Patients achieving a ≥4-point improvement … (%)” value ([1]; Subset B, Dupilumab 300 mg Q2W) was “(39.5) %” and the “Patients achieving EASI 75, n (%)” value ([1]; Subset B, Dupilumab 300 mg QW (N = 379)) was “(53.6) %”. The “Patients achieving IGA 0-1, n (%)” value ([1]; Subset B, Dupilumab 300 mg QW) was “(38.8) %”, the “Patients achieving a ≥4-point improvement … (%)” value ([1]; Subset B, Dupilumab 300 mg QW) was “(40.9) %” and the “mean functional concentration of dupilumab in serum” value ([2]; 300 mg q2w (600 mg loading dose) with TCS) was 80 mg/L. The “mean functional concentration of dupilumab in serum” value ([2]; 300 mg qw (600 mg loading dose) with TCS) was 185 mg/L, the “serious AEs/100PY” value ([3]; dupilumab-naïve patients) was 11.7 serious AEs/100PY and the “treatment discontinuations due to AEs” value ([3]; dupilumab-naïve patients) was 2.6%. The “adverse events/100 patient years” value ([3]; dupilumab-naïve patients (n=116)) was 432.5 AEs/100PY, the deaths ([3]; naïve and retreated patients) was “no deaths” and the “decrease in peak pruritus NRS score from baseline of parent study” value ([3]; naïve patients) was 64.9%. For the same substance, the “patients who achieved EASI-75 (from baseline of parent study)” value ([3]; naïve patients) was 73.3%, the “patients with Investigator's Global Assessment score of 0 or 1” value ([3]; naïve patients) was 49.1% and the “serious AEs/100PY” value ([3]; retreated patients) was 5.4 serious AEs/100PY. The “treatment discontinuations due to AEs” value ([3]; retreated patients) was 2.8%, the “adverse events/100 patient years” value ([3]; retreated patients (>13 Wk gap; n=290)) was 371.0 AEs/100PY and the “decrease in peak pruritus NRS score from baseline of parent study” value ([3]; retreated patients) was 60.6%. For the same substance, the “patients who achieved EASI-75 (from baseline of parent study)” value ([3]; retreated patients) was 80.7% and the “patients with Investigator's Global Assessment score of 0 or 1” value ([3]; retreated patients) was 50.7%.
